Source: patent US8722890B2 (AbbVie Inc., priority 2008, dated 2014)
pIC50: −log10 of the molar value. Like-named read-outs stand apart in the source and are kept apart here.

Columns and labels:
cKIT = cKIT (Homo sapiens (Human), UniProt P10721); test: HTRF in vitro kinase assay, cKIT; assay type: biochemical; details: PDGFR family; 1 mM ATP
Method: (§1) To determine the activity of the various kinases, a homogenous time-resolved fluorescence (HTRF) in vitro kinase assay was used.
(§2) For example for KDR, cKIT, FLT1, CSF1R and FTL3, purified enzyme was mixed with 0.5 μM N-biotinylated substrate (Biotin-Ahx-[…]-amide (SEQ. ID. 1)), various concentrations of inhibitor in reaction buffer (50 mM HEPES, pH 7.1, 10 mM MgCl2, 2 mM MnCl2, 0.1% BSA and 1 mM DTT, 40 μL final volume), ATP (1 mM final conc.) in a black 384-well plate. […] The quenched reaction was allowed to stand at room temperature for 3 hours and was then read in a time-resolved fluorescence detector (InVision, Perkin-Elmer) at 620 nm and 665 nm sequentially with excitation.

Aurora B = Aurora B (Homo sapiens (Human), UniProt Q96GD4); test: Aurora B activity assay (time-resolved fluorescence); assay type: biochemical; details: Table 3; 1 mM ATP
Method: After 1 hour, the reaction was stopped with EDTA and anti-phospho-histone H3 Europium Cryptate (Cis-Bio) and SA-APC (Phycolink, Prozyme) were added to detect the phosphopeptide. The amount of phosphorylation was determined by the time-resolved fluorescence ratio of signals at 665 nm and 615 nm. The IC50's were calculated by an exponential fit of the inhibition values with the inhibitor concentrations using Assay Explorer software.

Aurora C = Aurora C (Homo sapiens (Human), UniProt Q9UQB9); test: Aurora C activity assay (time-resolved fluorescence); assay type: biochemical; details: Table 5; read-out: Aurora C HTRF IC50
Method: To determine Aurora A and C activity of representative compounds of the invention, Active Aurora A or C enzyme was incubated in wells of a 384 well plate with biotinylated STK substrate-2 (Upstate), 1 mM ATP, and various concentrations of inhibitors in a Hepes buffer, pH 7.4 containing MgCl2, sodium othrovanadate, and Triton X-100. After 1 hour, the reaction was stopped with EDTA and anti-phospho-STK antibody Europium Cryptate (Upstate) and SA-XL665 (Upstate) were added to detect the phosphopeptide. The amount of phosphorylation was determined by the time-resolved fluorescence ratio of signals at 665 nm and 615 nm. The IC50s were calculated by an exponential fit of the inhibition values with the inhibitor concentrations using Assay Explorer software.

KDR = KDR (Homo sapiens (Human), UniProt P35968); test: HTRF in vitro kinase assay, KDR; assay type: biochemical; details: VEGFR family; 1 mM ATP
Method: as §1, §2

CYP 3A4 = CYP 3A4 (Homo sapiens (Human), UniProt P08684); test: CYP 3A4 Assay (pooled human liver microsomes, midazolam)
Method: Assays (200 μL final volume) were carried out in NUNC polypropylene deep well plates in 50 mM potassium phosphate buffer, pH 7.4, using a microtiter plate shaker in a 37° C. incubator. […] A constant amount of dimethylsulfoxide (1%) was added to the incubations with the test compounds, and each analysis was performed in duplicate. For preincubation experiments (Pre), the microsomes, test compounds, and NADPH were mixed and incubated 30 minutes before addition of midazolam. For coincubation experiments (Co), the compounds, microsomes, and midazolam were mixed and the reaction initiated by addition of NADPH to the wells. In both protocols, the complete reaction was terminated after 10 minutes of shaking by addition of 100 μL of a 1/1 mixture of acetonitrile and methanol containing 0.33 μM 1-hydroxytriazolam.
For analysis, an aliquot of each well were transferred to an autosampler vial and 10 μL injected onto a Shimadzu LC-10A HPLC system equipped with a YMC-AQ (2.0×50 mm) column. The components were separated using a gradient of 10% acetonitrile −0.1% acetic acid to 70% acetonitrile −0.1% acetic acid at a flow rate of at 0.4 mL/minute over 5 minutes.

Sequence of Aurora B (Q96GD4 whole entry): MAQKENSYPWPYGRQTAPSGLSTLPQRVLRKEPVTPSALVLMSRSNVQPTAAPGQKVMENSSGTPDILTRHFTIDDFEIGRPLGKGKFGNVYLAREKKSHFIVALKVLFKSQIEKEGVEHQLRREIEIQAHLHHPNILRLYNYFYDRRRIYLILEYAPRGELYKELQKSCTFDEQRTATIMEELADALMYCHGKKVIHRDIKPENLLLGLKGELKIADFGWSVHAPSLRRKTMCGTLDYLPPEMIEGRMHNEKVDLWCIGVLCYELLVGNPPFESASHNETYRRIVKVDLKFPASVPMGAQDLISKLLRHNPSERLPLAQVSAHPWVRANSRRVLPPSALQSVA
Sequence of Aurora B (Q9NQS7 826-918 partner): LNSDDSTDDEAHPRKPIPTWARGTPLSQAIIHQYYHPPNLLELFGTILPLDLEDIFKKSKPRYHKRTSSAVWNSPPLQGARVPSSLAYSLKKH
Sequence of cKIT (P10721 544-976): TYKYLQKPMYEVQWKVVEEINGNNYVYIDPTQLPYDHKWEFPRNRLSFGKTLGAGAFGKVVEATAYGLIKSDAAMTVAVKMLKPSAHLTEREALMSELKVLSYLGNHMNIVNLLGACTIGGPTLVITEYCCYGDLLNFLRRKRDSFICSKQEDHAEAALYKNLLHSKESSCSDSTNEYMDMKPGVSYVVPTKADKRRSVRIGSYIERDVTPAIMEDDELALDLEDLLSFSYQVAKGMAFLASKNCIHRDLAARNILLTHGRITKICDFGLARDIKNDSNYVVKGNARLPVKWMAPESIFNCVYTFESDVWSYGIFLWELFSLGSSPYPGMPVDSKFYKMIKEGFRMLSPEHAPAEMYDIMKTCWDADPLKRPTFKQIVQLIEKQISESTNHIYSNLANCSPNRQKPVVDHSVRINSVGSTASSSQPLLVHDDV
Sequence of CYP 3A4 (P08684 whole entry): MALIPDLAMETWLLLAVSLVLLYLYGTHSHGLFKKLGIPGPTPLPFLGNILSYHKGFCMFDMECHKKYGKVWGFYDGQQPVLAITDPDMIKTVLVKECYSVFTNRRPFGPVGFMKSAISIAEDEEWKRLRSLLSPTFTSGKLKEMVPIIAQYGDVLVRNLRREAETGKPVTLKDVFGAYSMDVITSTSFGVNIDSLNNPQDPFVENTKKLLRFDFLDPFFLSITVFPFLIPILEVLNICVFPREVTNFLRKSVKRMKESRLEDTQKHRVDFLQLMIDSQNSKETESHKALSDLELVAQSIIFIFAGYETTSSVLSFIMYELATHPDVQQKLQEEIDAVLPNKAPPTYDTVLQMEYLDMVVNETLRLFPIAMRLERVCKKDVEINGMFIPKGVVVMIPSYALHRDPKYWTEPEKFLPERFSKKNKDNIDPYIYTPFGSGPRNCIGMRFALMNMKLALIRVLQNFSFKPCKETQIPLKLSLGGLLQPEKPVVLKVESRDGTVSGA
Sequence of Aurora C (Q9UQB9 whole entry): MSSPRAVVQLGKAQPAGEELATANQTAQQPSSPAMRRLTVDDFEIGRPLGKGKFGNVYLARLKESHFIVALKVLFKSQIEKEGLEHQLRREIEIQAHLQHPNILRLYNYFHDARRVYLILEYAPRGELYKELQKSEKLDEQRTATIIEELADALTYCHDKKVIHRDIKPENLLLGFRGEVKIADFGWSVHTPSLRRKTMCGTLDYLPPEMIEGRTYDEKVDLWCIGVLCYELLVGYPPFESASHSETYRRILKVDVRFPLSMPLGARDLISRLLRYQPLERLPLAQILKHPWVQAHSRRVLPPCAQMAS
Sequence of KDR (P35968 789-1354): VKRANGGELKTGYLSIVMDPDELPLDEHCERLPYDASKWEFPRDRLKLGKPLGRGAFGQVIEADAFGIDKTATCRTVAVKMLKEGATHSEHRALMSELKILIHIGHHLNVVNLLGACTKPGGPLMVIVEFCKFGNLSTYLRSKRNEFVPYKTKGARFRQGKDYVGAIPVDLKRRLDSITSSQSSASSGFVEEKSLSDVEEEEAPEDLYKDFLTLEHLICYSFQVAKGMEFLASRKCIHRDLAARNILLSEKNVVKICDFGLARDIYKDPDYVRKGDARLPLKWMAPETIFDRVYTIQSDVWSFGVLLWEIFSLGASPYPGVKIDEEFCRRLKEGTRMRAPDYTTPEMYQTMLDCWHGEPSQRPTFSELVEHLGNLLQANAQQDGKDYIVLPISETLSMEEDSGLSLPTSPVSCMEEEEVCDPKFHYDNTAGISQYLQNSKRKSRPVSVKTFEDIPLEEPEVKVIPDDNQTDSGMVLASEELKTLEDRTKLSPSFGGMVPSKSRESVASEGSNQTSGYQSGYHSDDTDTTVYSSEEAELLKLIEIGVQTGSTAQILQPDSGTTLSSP

pIC50 (cKIT)	pIC50 (Aurora B)	Compound	further results
7.56	8.10	Nc1ncc(-c2cnn(CCO)c2)c2scc(-c3ccc(NC(=O)Nc4ccc(OC(F)F)cc4)cc3)c12 [Example 2, N-(4-{4-amino-7-[1-(2-hydroxyethyl)-1H-pyrazol-4-yl]thieno[3,2-c]pyridin-3-yl}phenyl)-N′-[4-(difluoromethoxy)phenyl]urea]	–
–	–	Nc1ncc(-c2cnn(CCO)c2)c2scc(-c3ccc(NC(=O)Nc4cccc(F)c4)cc3)c12 [Example 1, N-(4-{4-amino-7-[1-(2-hydroxyethyl)-1H-pyrazol-4-yl]thieno[3,2-c]pyridin-3-yl}phenyl)-N′-(3-fluorophenyl)urea]	pIC50 (Aurora C): 9.00
–	7.95	Cc1cccc(NC(=O)Nc2ccc(-c3csc4c(-c5cnn(C[C@H](C)O)c5)cnc(N)c34)cc2)c1 [Example 3, N-[4-(4-amino-7-{1-[(2S)-2-hydroxypropyl]-1H-pyrazol-4-yl}thieno[3,2-c]pyridin-3-yl)phenyl]-N′-(3-methylphenyl)urea]	–
–	8.07	Cc1cccc(NC(=O)Nc2ccc(-c3csc4c(-c5cn[nH]c5)cnc(N)c34)cc2)c1 [Example 6, N-{4-[4-amino-7-(1H-pyrazol-4-yl)thieno[3,2-c]pyridin-3-yl]phenyl}-N′-(3-methylphenyl)urea, reference compound]	–
–	7.83	COc1ccc(NC(=O)Nc2ccc(-c3csc4c(-c5cnn(CC(C)(C)O)c5)cnc(N)c34)cc2)cc1 [Example 4, N-(4-{4-amino-7-[1-(2-hydroxy-2-methylpropyl)-1H-pyrazol-4-yl]thieno[3,2-c]pyridin-3-yl}phenyl)-N′-(4-methoxyphenyl)urea]	pIC50 (KDR): 8.30; pIC50 (CYP 3A4; read-out: CYP 3A4 IC50, coincubation (Co), Co: reaction initiated by addition of NADPH, 2 μM midazolam): < 5.00; pIC50 (CYP 3A4; read-out: CYP 3A4 IC50, preincubation (Pre), Pre: microsomes, compound, NADPH incubated 30 minutes before midazolam): < 5.00
7.90	–	COc1ccc(NC(=O)Nc2ccc(-c3csc4c(-c5cnn(C[C@H](O)CO)c5)cnc(N)c34)cc2)cc1 [Example 5, N-[4-(4-amino-7-{1-[(2S)-2,3-dihydroxypropyl]-1H-pyrazol-4-yl}thieno[3,2-c]pyridin-3-yl)phenyl]-N′-(4-methoxyphenyl)urea]	–
